{"source": "PubChem BioAssay AID2305", "about": "(GlaxoSmithKline (GSK), 2010)"}
{"tested_on": "P. falciparum 3D7 growth, pLDH absorbance", "test": "blood-stage malaria parasite growth potency – strain 3D7, dose response (AID 2305)", "units": {"IC50": "nM"}}
{"compound": "O=C(NCc1ccccn1)C(c1cc2ccccc2o1)N1CCN(C(c2ccccc2)c2ccccc2)CC1", "note": "(stereo not drawn)", "IC50": 860}
{"compound": "COc1cccc2cc(C(=O)N[C@@H](CC(C)C)C(=O)Nc3cc(F)ccc3Br)oc12", "IC50": 970}
{"compound": "O=C(NC1CCCCC1)C(c1cccs1)N(CCc1ccccc1)C(=O)c1ccco1", "note": "(stereo not drawn)", "IC50": 1040}
{"compound": "O=C(Nc1cccc(-c2csc(NC(=O)c3ccc4ccccc4c3)n2)c1)c1ccc2ccccc2c1", "IC50": 710}
{"compound": "OC(CN1CCN(Cc2ccccc2)CC1)Cn1c(-c2ccccc2)c(-c2ccccc2)c2ccccc21", "note": "(stereo not drawn)", "IC50": 710}
{"compound": "CC(C)NCc1ccc(-c2ccc(-c3nc4ccc(C(F)(F)F)cc4[nH]3)s2)cc1", "IC50": 180}
{"compound": "COc1cc2nc(NCCc3ccccc3)nc(NCCCc3ccccc3)c2cc1OC", "IC50": 160}
{"compound": "Cc1cc(NC(=O)c2ccco2)ccc1OC1CCN(Cc2ccc(F)cc2)CC1", "IC50": 590}
{"compound": "CC(C)NCc1ccc(-c2cccc(NC(=O)c3cccc(Cl)c3)c2)cc1", "IC50": 730}
{"compound": "CC(C)N1CCC(N(Cc2ccc(-c3ccc(C(F)(F)F)cc3)cc2)C(=O)Cn2c(SCc3cccc(F)c3F)cc(=O)c3ccccc32)CC1", "IC50": 820}
{"compound": "O=C(Nc1cccc(CCNCc2ccccc2)c1)Nc1cccc2ccccc12", "IC50": 730}
{"compound": "CCOC(=O)CCCOc1cc(Cc2cnc(N)nc2N)cc(OC)c1OC", "IC50": 240}
{"compound": "COc1cccc(CCc2ccc(O)c3c2C[C@H]2C[C@H]4[C@H](N(C)C)C(=O)C(C(N)=O)=C(O)[C@@]4(O)C(=O)C2=C3O)c1", "IC50": 850}
{"compound": "COc1ccc2nccc([C@@H](O)CN3CCC(NC(=O)/C=C/c4cc([N+](=O)[O-])ccc4OC)CC3)c2c1", "IC50": 260}
{"compound": "CCOc1cc(C(=O)NC2CC(C)(C)NC(C)(C)C2)ccc1-c1nc2ccc(Cl)cc2[nH]1", "IC50": 990}
{"compound": "O=C(Nc1ccc(N2CCC(Nc3ccccn3)CC2)cc1)c1cnc(Cl)c(Cl)c1", "IC50": 1190}
{"compound": "CN(c1cc(NC(=O)c2ccccc2)ccn1)C1CCN(Cc2cccc(F)c2)CC1", "IC50": 740}
{"compound": "O=S(=O)(NCCN1CCCC1)c1cccc(-c2ccc(CNCc3ccc(F)cc3)cc2)c1", "IC50": 230}
{"compound": "COc1cc2nc(N3CCC(CNC(=O)c4cc5ccccc5s4)CC3)nc(N)c2cc1OC", "IC50": 290}
{"compound": "CC(C)CCNc1nc2ccccc2nc1Nc1cccc(C(F)(F)F)c1", "IC50": 910}
{"compound": "CC(C)CNCc1ccc(-c2cccc(CN(CCN(C)C)C(=O)NCCc3ccccc3)c2)cc1", "IC50": 1060}
{"compound": "COc1cc2nc(N3CCN(C(=O)c4cccc(I)c4)CC3)nc(N)c2cc1OC", "IC50": 1320}
{"compound": "O=C(c1ccc(F)c(F)c1)N1CCOC(CCN2CCC(c3ccccc3)CC2)(c2ccc(Cl)c(Cl)c2)C1", "note": "(stereo not drawn)", "IC50": 1040}
{"compound": "NC(=O)c1cnc2ccc(-c3cncs3)cc2c1Nc1ccc(F)c(Cl)c1", "IC50": 180}
{"compound": "Cc1cc(=O)[nH]c(-n2nc(C)cc2NC(=O)CC(c2ccccc2)c2ccccc2)n1", "IC50": 1100}
{"compound": "CCOC(=O)[C@H](Cc1cccc2ccccc12)NC(=O)[C@H](CCC(=O)OC(C)(C)C)NC(=O)c1ccc(N(C)Cc2cnc3nc(N)nc(N)c3n2)cc1", "IC50": 660}
{"compound": "N#Cc1cccc(NC(=O)C2=C(CCc3ccc4c(c3)OCO4)NC(=O)NC2c2cccc(C#N)c2)c1", "note": "(stereo not drawn)", "IC50": 830}
{"compound": "O=C(NN=Cc1nc2ccccc2[nH]1)c1cccc([N+](=O)[O-])c1", "IC50": 630}
{"compound": "CS(=O)(=O)CCNCc1nc(-c2ccc3ncnc(Nc4ccc(OCc5cccc(F)c5)c(Cl)c4)c3c2)cs1", "IC50": 770}
{"compound": "c1cncc(Oc2ccc(Nc3ccnc4cc(-c5cccc(CNCCN6CCOCC6)c5)ccc34)cc2)c1", "IC50": 110}
{"compound": "O=C(Nc1ccc(-c2ccccc2)cc1)Nc1cccc(Cn2cnc(N3CCCNCC3)cc2=O)c1", "IC50": 1080}
{"compound": "COc1ccc(CN2CCC(C(=O)Nc3cccc(-c4cccc(Cl)c4)c3)CC2)cc1O", "IC50": 970}
{"compound": "CN1CCN(Cc2cccc(-c3ccc4c(Nc5ccc(F)cc5Cl)ccnc4c3)c2)CC1", "IC50": 160}
{"compound": "Cc1onc(-c2c(Cl)cccc2Cl)c1C(=O)NC1=NC(C)(C)ON1c1ccccc1", "IC50": 1070}
{"compound": "Cc1[nH]c(C)c(-c2ccc(-c3ccc4c(c3)OCO4)nc2)c(=O)c1Br", "IC50": 190}
{"compound": "CCOC(=O)C(CO)NC(=O)c1ccc([N+](=O)[O-])o1", "note": "(stereo not drawn)", "IC50": 290}
{"compound": "COc1ccc(C2C(C(=O)Nc3ccc(C)cc3Br)c3ccccc3C(=O)N2C)cc1", "note": "(stereo not drawn)", "IC50": 940}
{"compound": "CC(=O)Oc1c(Br)c(C)nc(C)c1-c1ccc(Oc2ccc(OC(F)(F)F)cc2)cc1", "IC50": 130}
{"compound": "CN1CCN(c2ccnc3ccc(NC(=O)Nc4ccc(-c5ccncc5)c5ccccc45)cc23)CC1", "IC50": 310}
{"compound": "O=S(=O)(NCCN1CCCC1)c1cccc(-c2cccc(CNCCc3cccs3)c2)c1", "IC50": 750}
{"compound": "O=C(Nc1ccc(-c2cccc(-c3nc4ccc(C(F)(F)F)cc4[nH]3)c2)cc1)c1csnn1", "IC50": 800}
{"compound": "CC(C)(C)c1ccc(N2C(N)=NC(N)=NC2(C)C)cc1Cl", "IC50": 10}
{"compound": "Oc1cccc(/C=N/Nc2ccnc3cc(Cl)ccc23)c1", "IC50": 730}
{"compound": "O=C(Nc1ccc(Cl)c(Cl)c1)N(Cc1ccccc1Br)C1CCNCC1", "IC50": 1030}
{"compound": "CCN1CCN(CCCNc2c3ccc(Cl)cc3nc3ccc(O)cc23)CC1", "IC50": 570}
{"compound": "CN1[C@@H]2CC[C@H]1c1cc(NC(=O)c3cc(-c4ccc(Cl)cc4)cs3)ccc12", "IC50": 1300}
{"compound": "CC(C)N1CCC(Oc2ccc(CN3CCN(C(c4ccccc4)c4ccc(Cl)cc4)CC3)cc2)CC1", "note": "(stereo not drawn)", "IC50": 940}
{"compound": "CC(=O)Nc1nc(C(=O)Nc2cccc(-c3ccc(-c4nc5ccc(F)cc5[nH]4)cc3)c2)cs1", "IC50": 290}
{"compound": "O=C(Nc1ccc2c(c1)CCC2)c1ccc(N2CCN(c3ccncc3)CC2)cn1", "IC50": 860}
{"compound": "CS(=O)(=O)Cc1ccc(Nc2nccc(-c3c(-c4cccc(NC(=O)c5c(F)cccc5F)c4)nn4ccccc34)n2)cc1", "IC50": 150}
{"compound": "CC(Cc1ccc(OCCCCOc2ccccc2)cc1)NCCC1CCCN1C", "note": "(stereo not drawn)", "IC50": 40}
{"compound": "COc1ccccc1C1CCN(C2CCC(NC(=O)/C=C/c3cccc(Cl)c3)CC2)CC1", "note": "(stereo not drawn)", "IC50": 1030}
{"compound": "CN(C)CCOc1cc(NC(=O)Nc2cccc3c(-c4ccncc4)cccc23)ccc1I", "IC50": 730}
{"compound": "CCOc1ccc(C(=O)Nc2cc(Br)c3c(c2)CNCC3)cc1Br", "IC50": 990}
{"compound": "Cc1ccc(CNC(=O)[C@H](CC(C)C)Nc2cc(C)nc(Nc3ccccc3)n2)cc1", "IC50": 1770}
{"compound": "NC(=O)c1ccc(NCC(=O)Nc2cccc(-c3cccc(-c4nc5ccccc5[nH]4)c3)c2)cc1", "IC50": 990}
{"compound": "COc1ccc(NC(=O)c2ccc(-c3nc(-c4ccc(Cl)cc4)cs3)cc2)cc1N1CCN(C)CC1", "IC50": 920}
{"compound": "O=C(NCC1COc2ccccc2O1)c1cnc2c(c1)nc(-c1cnc(-c3ccccc3)[nH]1)n2CCSCc1c(F)cccc1Cl", "note": "(stereo not drawn)", "IC50": 960}
{"compound": "Clc1ccc2c(NN=Cc3cccs3)ccnc2c1", "IC50": 920}
{"compound": "O=C(/C=C/c1c[nH]c2ccccc12)NCCCCCN1CCC(c2c[nH]c3ccccc23)CC1", "IC50": 930}
{"compound": "COc1ccccc1CNC(=O)c1ccc(N2CCN(c3ccncc3)CC2)cn1", "IC50": 1360}
{"compound": "CCN(CC)CCOc1ccc(NC(=O)c2oc3ccccc3c2C=Cc2ccccc2)cc1", "IC50": 220}
{"compound": "COc1ccc(CN2CCC(CN3CC4(OC3=O)c3ccccc3-c3ccccc34)C2)c(O)c1", "note": "(stereo not drawn)", "IC50": 610}
{"compound": "OC(CNCc1ccccc1OCc1ccccc1)c1cccc(Br)c1", "note": "(stereo not drawn)", "IC50": 640}
{"compound": "COc1ccccc1/C=C/C(=O)N(C)C1CCN(CCCCCNC(=O)/C=C/c2ccc(Cl)c(Cl)c2)CC1", "IC50": 440}
{"compound": "COc1ccc(NC(=O)[C@H](Cc2ccccc2)Nc2cc(C)nc(NCC3CCCCC3)n2)cc1", "IC50": 680}
{"compound": "CC1(CCCCN2CCC(Oc3ccc(F)cc3F)CC2)C(=O)Nc2ccccc21", "note": "(stereo not drawn)", "IC50": 760}
{"compound": "O=C(Nc1cccc(CN2CCN(C(=O)c3cccs3)CC2)c1)c1cccs1", "IC50": 780}
